# Data from ChEMBL document CHEMBL3817831, “Ionophoric polyphenols selectively bind Cu(2+), display potent antioxidant and anti-amyloidogenic properties, and are non-toxic toward Tetrahymena thermophila” (Bioorg Med Chem, 2016).
# Active and inactive are the calls of the source. No cut-off for these calls is given here.
# Tested on: not listed separately
# Experiment: Binding affinity to Zn2+ using ZnCl2 at 20 uM after 5 mins by spectrophotometry
# Conditions: not given
row,SMILES,Activity
1,Oc1ccc(CNc2ccccc2O)cc1,inactive
2,Oc1ccc(CNc2ccccc2O)cc1O,inactive
3,Oc1ccc(/N=C/c2c(O)ccc3ccccc23)c(O)c1,inactive

# Tested on: not listed separately
# Experiment: Binding affinity to Fe2+ using FeCl2 at 20 uM after 5 mins by spectrophotometry
# Conditions: not given
row,SMILES,Activity
1,Oc1ccc(CNc2ccccc2O)cc1,inactive
2,Oc1ccc(CNc2ccccc2O)cc1O,inactive
3,Oc1ccc(/N=C/c2c(O)ccc3ccccc23)c(O)c1,inactive

# Tested on: not listed separately
# Experiment: Binding affinity to Ca2+ using CaCl2 at 20 uM after 5 mins by spectrophotometry
# Conditions: not given
row,SMILES,Activity
1,Oc1ccc(CNc2ccccc2O)cc1,inactive
2,Oc1ccc(CNc2ccccc2O)cc1O,inactive
3,Oc1ccc(/N=C/c2c(O)ccc3ccccc23)c(O)c1,inactive

# Tested on: not listed separately
# Experiment: Binding affinity to Mn2+ using MnCl2 at 20 uM after 5 mins by spectrophotometry
# Conditions: not given
row,SMILES,Activity
1,Oc1ccc(CNc2ccccc2O)cc1,inactive
2,Oc1ccc(CNc2ccccc2O)cc1O,inactive
3,Oc1ccc(/N=C/c2c(O)ccc3ccccc23)c(O)c1,inactive

# Tested on: not listed separately
# Experiment: Binding affinity to Mg2+ using MgSO4 at 20 uM after 5 mins by spectrophotometry
# Conditions: not given
row,SMILES,Activity
1,Oc1ccc(CNc2ccccc2O)cc1,inactive
2,Oc1ccc(CNc2ccccc2O)cc1O,inactive
3,Oc1ccc(/N=C/c2c(O)ccc3ccccc23)c(O)c1,inactive

# Tested on: not listed separately
# Experiment: Binding affinity to Cu2+ using CuCl2 at 10 uM after 5 mins by spectrophotometric titration assay
# Conditions: not given
row,SMILES,Activity
1,Oc1ccc(/N=C/c2c(O)ccc3ccccc23)c(O)c1,Active

# Tested on: not listed separately
# Experiment: Binding affinity to Cu2+ using CuCl2 at 20 uM after 5 mins by spectrophotometric titration assay
# Conditions: not given
row,SMILES,Activity
1,Oc1ccc(CNc2ccccc2O)cc1,Active
2,Oc1ccc(CNc2ccccc2O)cc1O,Active

# Target: Amyloid-beta precursor protein (Homo sapiens) (UniProt P05067)
# Experiment: Binding affinity to amyloid beta (1 to 40) (unknown origin) by tyrosine fluorimetric titration assay
# Conditions: not given
# Chain of Amyloid-beta precursor protein (Homo sapiens) (P05067 whole entry): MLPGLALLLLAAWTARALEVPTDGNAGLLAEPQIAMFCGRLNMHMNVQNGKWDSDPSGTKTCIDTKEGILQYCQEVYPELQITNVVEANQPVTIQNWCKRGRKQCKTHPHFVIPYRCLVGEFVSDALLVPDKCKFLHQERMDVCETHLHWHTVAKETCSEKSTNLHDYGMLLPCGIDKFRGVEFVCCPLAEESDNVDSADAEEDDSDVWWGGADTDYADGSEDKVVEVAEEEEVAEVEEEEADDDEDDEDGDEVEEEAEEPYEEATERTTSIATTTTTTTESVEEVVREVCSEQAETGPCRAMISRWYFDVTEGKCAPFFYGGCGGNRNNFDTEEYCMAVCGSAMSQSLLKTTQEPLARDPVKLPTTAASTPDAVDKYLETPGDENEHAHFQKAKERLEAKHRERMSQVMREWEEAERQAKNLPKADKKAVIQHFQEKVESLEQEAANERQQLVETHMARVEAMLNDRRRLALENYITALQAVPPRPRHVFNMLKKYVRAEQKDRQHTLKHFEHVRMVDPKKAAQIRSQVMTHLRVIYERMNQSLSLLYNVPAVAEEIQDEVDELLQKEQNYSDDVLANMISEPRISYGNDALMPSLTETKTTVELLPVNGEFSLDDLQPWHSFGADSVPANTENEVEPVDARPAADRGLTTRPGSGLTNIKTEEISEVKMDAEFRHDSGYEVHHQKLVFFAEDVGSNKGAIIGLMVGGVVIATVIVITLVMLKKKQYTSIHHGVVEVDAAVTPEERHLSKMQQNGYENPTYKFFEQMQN
row,SMILES,Ka [×10⁵ /M]
1,Oc1ccc(CNc2ccccc2O)cc1,3.27
2,Oc1ccc(CNc2ccccc2O)cc1O,3.55
3,Oc1ccc(/N=C/c2c(O)ccc3ccccc23)c(O)c1,2.46

# Tested on: not listed separately
# Experiment: Inhibition of Cu2+-amyloid beta (1 to 40) catalyzed generation of hydroxyl radical assessed as 7-hrdroxy-CCA formation at 2 equiv preincubated for 1 hr followed by CCA addition measured over 60 mins by fluorescence assay
# Conditions: not given
row,SMILES,inhibition [%]
1,Oc1ccc(CNc2ccccc2O)cc1,47.3
2,Oc1ccc(CNc2ccccc2O)cc1O,59.9
3,Oc1ccc(/N=C/c2c(O)ccc3ccccc23)c(O)c1,98.5

# Tested on: not listed separately
# Experiment: Inhibition of Cu2+-amyloid beta (1 to 40) catalyzed generation of hydroxyl radical assessed as rate of radical formation per min at 2 equiv preincubated for 1 hr followed by CCA addition measured over 60 mins by CCA based fluorescence assay (reference value: 13 +/- 0.2 a.u.)
# Conditions: not given
row,SMILES,Activity [a.u.]
1,Oc1ccc(CNc2ccccc2O)cc1,6.8
2,Oc1ccc(CNc2ccccc2O)cc1O,4
3,Oc1ccc(/N=C/c2c(O)ccc3ccccc23)c(O)c1,0.03

# Tested on: not listed separately
# Experiment: Antioxidant activity assessed as DPPH free radical scavenging activity after 30 mins by spectrophotometry
# Type: physicochemical
# Conditions: not given
row,SMILES,IC50 [µM]
1,Oc1ccc(CNc2ccccc2O)cc1,6.27
2,Oc1ccc(CNc2ccccc2O)cc1O,3.05
3,Oc1ccc(/N=C/c2c(O)ccc3ccccc23)c(O)c1,13.5

# Tested on: not listed separately
# Experiment: Ratio of resveratrol IC50 to compound IC50 for DPPH free radical scavenging activity
# Conditions: not given
row,SMILES,Ratio IC50
1,Oc1ccc(CNc2ccccc2O)cc1,2.8
2,Oc1ccc(CNc2ccccc2O)cc1O,5.8
3,Oc1ccc(/N=C/c2c(O)ccc3ccccc23)c(O)c1,1.3

# Tested on: not listed separately
# Experiment: Antioxidant activity assessed as AAPH radical scavenging activity preincubated for 30 mins followed by AAPH addition measured after 60 mins by ORAC assay
# Type: physicochemical
# Conditions: not given
row,SMILES,IC50 [nM]
1,Oc1ccc(CNc2ccccc2O)cc1,1380
2,Oc1ccc(CNc2ccccc2O)cc1O,610
3,Oc1ccc(/N=C/c2c(O)ccc3ccccc23)c(O)c1,3150

# Tested on: not listed separately
# Experiment: Ratio of resveratrol IC50 to compound IC50 for AAPH radical scavenging activity
# Conditions: not given
row,SMILES,Ratio IC50
1,Oc1ccc(CNc2ccccc2O)cc1,1.2
2,Oc1ccc(CNc2ccccc2O)cc1O,2.8
3,Oc1ccc(/N=C/c2c(O)ccc3ccccc23)c(O)c1,0.5

# Tested on: not listed separately
# Experiment: Inhibition of Cu2+-induced amyloid beta (1 to 40) aggregation at 100 uM preincubated for 5 mins followed by amyloid beta (1 to 40) addition measured after 18 days at pH 6.60 by thioflavin-T fluorescence assay
# Conditions: not given
row,SMILES,inhibition
1,Oc1ccc(CNc2ccccc2O)cc1,Active
2,Oc1ccc(CNc2ccccc2O)cc1O,Active
3,Oc1ccc(/N=C/c2c(O)ccc3ccccc23)c(O)c1,Active

# Tested on: not listed separately
# Experiment: Inhibition of Cu2+-induced amyloid beta (1 to 40) fibril aggregation assessed as remaining fibril aggregates at 100 uM preincubated for 5 mins followed by amyloid beta (1 to 40) addition measured after 3 days at pH 6.60 by thioflavin-T fluorescence assay
# Conditions: not given
row,SMILES,Activity [%]
1,Oc1ccc(CNc2ccccc2O)cc1,21.8
2,Oc1ccc(CNc2ccccc2O)cc1O,19.5
3,Oc1ccc(/N=C/c2c(O)ccc3ccccc23)c(O)c1,7.85

# Tested on: not listed separately
# Experiment: Inhibition of Cu2+-induced amyloid beta (1 to 40) fibril aggregation assessed as remaining fibril aggregates at 100 uM preincubated for 5 mins followed by amyloid beta (1 to 40) addition measured after 7 days at pH 6.60 by thioflavin-T fluorescence assay
# Conditions: not given
row,SMILES,Activity [%]
1,Oc1ccc(CNc2ccccc2O)cc1,11
2,Oc1ccc(CNc2ccccc2O)cc1O,12.1
3,Oc1ccc(/N=C/c2c(O)ccc3ccccc23)c(O)c1,10.9

# Target: Amyloid-beta precursor protein (Homo sapiens) (UniProt P05067)
# Experiment: Inhibition of self-induced amyloid beta (1 to 40) (unknown origin) fibril aggregation assessed as remaining fibril aggregates at 100 uM after 3 days at pH 6.60 by thioflavin-T fluorescence assay
# Conditions: not given
row,SMILES,Activity [%]
1,Oc1ccc(CNc2ccccc2O)cc1,4.34
2,Oc1ccc(CNc2ccccc2O)cc1O,9.17
3,Oc1ccc(/N=C/c2c(O)ccc3ccccc23)c(O)c1,6.51

# Target: Amyloid-beta precursor protein (Homo sapiens) (UniProt P05067)
# Experiment: Inhibition of self-induced amyloid beta (1 to 40) (unknown origin) fibril aggregation assessed as remaining fibril aggregates at 100 uM after 7 days at pH 6.60 by thioflavin-T fluorescence assay
# Conditions: not given
row,SMILES,Activity [%]
1,Oc1ccc(CNc2ccccc2O)cc1,3.7
2,Oc1ccc(CNc2ccccc2O)cc1O,7.49
3,Oc1ccc(/N=C/c2c(O)ccc3ccccc23)c(O)c1,6.21

# Tested on: not listed separately
# Experiment: Inhibition of preformed Cu2+-induced amyloid beta (1 to 40) fibril aggregation assessed as remaining fibril aggregates at 100 uM after 4 days at pH 6.60 by thioflavin-T fluorescence assay
# Conditions: not given
row,SMILES,Activity [%]
1,Oc1ccc(CNc2ccccc2O)cc1,152
2,Oc1ccc(CNc2ccccc2O)cc1O,76.5
3,Oc1ccc(/N=C/c2c(O)ccc3ccccc23)c(O)c1,46

# Tested on: not listed separately
# Experiment: Induction of preformed Cu2+-induced amyloid beta (1 to 40) fibril aggregation at 100 uM after 4 to 12 days by turbidity assay relative to control
# Conditions: not given
row,SMILES,Activity
1,Oc1ccc(CNc2ccccc2O)cc1O,Active
2,Oc1ccc(/N=C/c2c(O)ccc3ccccc23)c(O)c1,Active

# Tested on: not listed separately
# Experiment: Inhibition of preformed Cu2+-induced amyloid beta (1 to 40) fibril aggregation assessed as remaining fibril aggregates at 100 uM after 12 days at pH 6.60 by thioflavin-T fluorescence assay
# Conditions: not given
row,SMILES,Activity [%]
1,Oc1ccc(CNc2ccccc2O)cc1,106
2,Oc1ccc(CNc2ccccc2O)cc1O,69.7
3,Oc1ccc(/N=C/c2c(O)ccc3ccccc23)c(O)c1,47.3

# Target: Amyloid-beta precursor protein (Homo sapiens) (UniProt P05067)
# Experiment: Inhibition of preformed self-induced amyloid beta (1 to 40) (unknown origin) fibril aggregation assessed as remaining fibril aggregates at 100 uM after 4 days at pH 6.60 by thioflavin-T fluorescence assay
# Conditions: not given
row,SMILES,Activity [%]
1,Oc1ccc(CNc2ccccc2O)cc1,8.37
2,Oc1ccc(CNc2ccccc2O)cc1O,12.8
3,Oc1ccc(/N=C/c2c(O)ccc3ccccc23)c(O)c1,14.4

# Target: Amyloid-beta precursor protein (Homo sapiens) (UniProt P05067)
# Experiment: Inhibition of preformed self-induced amyloid beta (1 to 40) (unknown origin) fibril aggregation assessed as remaining fibril aggregates at 100 uM after 12 days at pH 6.60 by thioflavin-T fluorescence assay
# Conditions: not given
row,SMILES,Activity [%]
1,Oc1ccc(CNc2ccccc2O)cc1,10.1
2,Oc1ccc(CNc2ccccc2O)cc1O,9.28
3,Oc1ccc(/N=C/c2c(O)ccc3ccccc23)c(O)c1,11

# Tested on: not listed separately
# Experiment: Induction of Cu2+-induced amyloid beta (1 to 40) fibril aggregation at 100 uM preincubated for 5 mins followed by amyloid beta (1 to 40) addition measured after 3 to 7 days by turbidity assay
# Conditions: not given
row,SMILES,Activity [%]
1,Oc1ccc(CNc2ccccc2O)cc1,47
2,Oc1ccc(CNc2ccccc2O)cc1O,47
3,Oc1ccc(/N=C/c2c(O)ccc3ccccc23)c(O)c1,47

# Tested on: not listed separately
# Experiment: Toxicity in Tetrahymena thermophila assessed as reduction in cell viability after 48 hrs by MTT assay
# Type: organism-based
# Conditions: Tetrahymena thermophila cells, read-out: LD50
row,SMILES,LC50 at 48 h [µM]
1,Oc1ccc(CNc2ccccc2O)cc1,211
2,Oc1ccc(CNc2ccccc2O)cc1O,354
3,Oc1ccc(/N=C/c2c(O)ccc3ccccc23)c(O)c1,265

# Tested on: not listed separately
# Experiment: Binding affinity to Cu2+ using CuCl2 after 5 mins by spectrophotometry
# Conditions: not given
row,SMILES,logKa
1,Oc1ccc(CNc2ccccc2O)cc1,12.8
2,Oc1ccc(CNc2ccccc2O)cc1O,12.6
3,Oc1ccc(/N=C/c2c(O)ccc3ccccc23)c(O)c1,14.3

# Tested on: not listed separately
# Experiment: Ratio of ascorbic acid IC50 to compound IC50 for DPPH free radical scavenging activity
# Conditions: not given
row,SMILES,Ratio IC50
1,Oc1ccc(CNc2ccccc2O)cc1,2
2,Oc1ccc(CNc2ccccc2O)cc1O,2

# Tested on: not listed separately
# Experiment: Inhibition of Cu2+-induced amyloid beta (1 to 40) fibril aggregation at 100 uM preincubated for 5 mins followed by amyloid beta (1 to 40) addition measured after 18 days by turbidity assay
# Conditions: not given
row,SMILES,inhibition
1,Oc1ccc(CNc2ccccc2O)cc1,Active
2,Oc1ccc(CNc2ccccc2O)cc1O,Active
3,Oc1ccc(/N=C/c2c(O)ccc3ccccc23)c(O)c1,Active

# Target: Amyloid-beta precursor protein (Homo sapiens) (UniProt P05067)
# Experiment: Induction of self-induced amyloid beta (1 to 40) (unknown origin) fibril aggregation at 100 uM after 3 days by turbidity assay
# Conditions: not given
row,SMILES,Activity
1,Oc1ccc(CNc2ccccc2O)cc1,Active
2,Oc1ccc(CNc2ccccc2O)cc1O,Active
3,Oc1ccc(/N=C/c2c(O)ccc3ccccc23)c(O)c1,Active

# Target: Amyloid-beta precursor protein (Homo sapiens) (UniProt P05067)
# Experiment: Inhibition of self-induced amyloid beta (1 to 40) (unknown origin) fibril aggregation at 100 uM after 7 to 18 days by turbidity assay
# Conditions: not given
row,SMILES,inhibition
1,Oc1ccc(CNc2ccccc2O)cc1,Active
2,Oc1ccc(CNc2ccccc2O)cc1O,Active
3,Oc1ccc(/N=C/c2c(O)ccc3ccccc23)c(O)c1,Active

# Tested on: not listed separately
# Experiment: Inhibition of preformed Cu2+-induced amyloid beta (1 to 40) fibril aggregation at 100 uM after 4 to 12 days by turbidity assay relative to control
# Conditions: not given
row,SMILES,inhibition
1,Oc1ccc(CNc2ccccc2O)cc1,Active

# Target: Amyloid-beta precursor protein (Homo sapiens) (UniProt P05067)
# Experiment: Induction of preformed self-induced amyloid beta (1 to 40) (unknown origin) fibril aggregation at 100 uM after 4 days by turbidity assay
# Conditions: not given
row,SMILES,Activity
1,Oc1ccc(CNc2ccccc2O)cc1,Active
2,Oc1ccc(CNc2ccccc2O)cc1O,Active
3,Oc1ccc(/N=C/c2c(O)ccc3ccccc23)c(O)c1,Active

# Target: Amyloid-beta precursor protein (Homo sapiens) (UniProt P05067)
# Experiment: Inhibition of preformed self-induced amyloid beta (1 to 40) (unknown origin) fibril aggregation at 100 uM after 12 days by turbidity assay relative to control
# Conditions: not given
row,SMILES,inhibition
1,Oc1ccc(CNc2ccccc2O)cc1,Active
2,Oc1ccc(CNc2ccccc2O)cc1O,Active
3,Oc1ccc(/N=C/c2c(O)ccc3ccccc23)c(O)c1,Active
